The values below are quoted from earlier work in US20250332126A1, “TOPICAL COMPOSITION FOR PAIN RELIEF” (JOHNSON & JOHNSON CONSUMER INC., priority 2022, published 2025).

The conditions of this data set: at 20° C.
On to `CCO` [ethanol], for which the vapor pressure was 5.95 kPa. `CO` [methanol]: the vapor pressure is reported as 11.9 kPa. With `CC(C)O` [isopropanol], the vapor pressure is reported as 4.40 kPa.
